Patent EP4786487A1, “PEPTIDE” (Peptidream Inc, priority 2023, dated 2025)
Like-named read-outs stand apart in the source and are kept apart here. Starred links: 1 amine or outer side, 2 acyl side, 3 side chain; linkers in the order of their positions; H or OH if unused. Positions of bridges follow the written chain, without caps; N, C: chain ends. Non-standard residues stand in square brackets, D forms with d. Residues, ends and D or L forms follow the SMILES beside them. *: point of attachment. X4 = CN(C)C(=O)Cn1cc(-c2ccc(C[C@H](N[*:1])C(=O)[*:2])cc2)cn1; Phe(3-OCH2COOH) = N[C@@H](Cc1cccc(OCC(=O)O)c1)C(=O)O; X11 = O=C([C@H](Cc1ccc(-c2ccccc2Cl)cc1)N[*:1])[*:2]; Phe(4-COOH) = N[C@@H](Cc1ccc(C(=O)O)cc1)C(=O)O; Trp(7-aza) = N[C@@H](Cc1c[nH]c2ncccc12)C(=O)O; Piperazinyl(4-CH2COOH) = O=C(O)CN1CCN(*)CC1; Gly(N(CH2)3COOH) = O=C(O)CCCNCC(=O)O; X1 = CCCCCCC[C@H](N[*:1])C(=O)[*:2]; NMeF = CN[C@@H](Cc1ccccc1)C(=O)O; 4Pal = N[C@@H](Cc1ccncc1)C(=O)O; NMeE = CN[C@@H](CCC(=O)O)C(=O)O; NMeA = CN[C@@H](C)C(=O)O; Sar = CNCC(=O)O

Assays:
Myostatin = target: T1, Myostatin (Homo sapiens, UniProt O14793); test: HepG2 reporter gene assay, Evaluation Procedure (2): 2-concentrations assay, myostatin inhibition; type: cell-based
T1 construct: active myostatin (also called mature myostatin) is a homodimer consisting of two C-terminal growth factor domains; purchased R&D systems 788-G8/CF
T1 sequence (O14793 267-375): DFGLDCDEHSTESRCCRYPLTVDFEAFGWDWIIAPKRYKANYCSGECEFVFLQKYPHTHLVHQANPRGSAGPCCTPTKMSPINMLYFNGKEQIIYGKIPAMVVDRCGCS
Summary of the method: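 Myostatin inhibition was measured in a luciferase reporter assay using HepG2 cells transfected with a pGL3 vector containing 12 CAGA repeats upstream of luciferase. After 20 to 24 hours with 10 ng/mL myostatin, cells received One-Glo:PBS (1:1) at 100 µL/well, were shaken for 5 min, and 20 µL/well was moved to 384-well plates and read on an Envision 2104.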

GDF-11 = target: T2, GDF-11 (Homo sapiens, UniProt O95390); test: HepG2 reporter gene assay, Evaluation Procedure (2): 2-concentrations assay, GDF-11 inhibition; type: cell-based; conditions: for inhibition at 0.03 µM: HepG2, peptide 30nM, read-out: GDF11 Inhibition 30nM; for inhibition at 0.03 µM / inhibition at 0.1 µM: GDF-11 10 ng/mL; for inhibition at 0.1 µM: HepG2, peptide 100nM, read-out: GDF11 Inhibition 100nM
T2 construct: purchased R&D systems 1958-GD-G8/CF
T2 sequence (O95390 299-407): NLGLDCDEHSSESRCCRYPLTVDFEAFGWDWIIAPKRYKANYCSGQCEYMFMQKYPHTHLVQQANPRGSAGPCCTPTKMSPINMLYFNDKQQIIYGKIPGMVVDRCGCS
Summary of the method: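 HepG2 cells carrying the transfected pGL3(CAGA)12-luc reporter, a pGL3 vector with luciferase placed downstream of 12 CAGA repeats, were stimulated with GDF-11 at a final 10 ng/mL together with test peptide. Blank wells received no GDF-11 and no peptide. Plates were incubated 20 to 24 hours at 37°C with 5% CO2. Luminescence from One-Glo substrate was read to calculate percent inhibition.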

[1] = peptide 30nM, Myostatin 10 ng/mL, HepG2, read-out: Myostatin Inhibition 30nM
[2] = peptide 100nM, Myostatin 10 ng/mL, HepG2, read-out: Myostatin Inhibition 100nM
[3] = HepG2, read-out: inhibition rate (myostatin inhibition assay)

SMILES | inhibition at 0.03 µM (Myostatin; [1]) [%] | inhibition at 0.1 µM (Myostatin; [2]) [%] | inhibition at 0.03 µM (GDF-11) [%] | inhibition at 0.1 µM (GDF-11) [%] | other results
CC[C@H](C)[C@@H]1NC(=O)[C@H](Cc2ccccc2)N(C)C(=O)[C@H](Cc2ccc(O)cc2)NC(=O)[C@H](Cc2c[nH]c3ccccc23)NC(=O)[C@H](C)NC(=O)CN(CCCC(=O)O)C(=O)CSC[C@H](C(N)=O)NC(=O)[C@H](Cc2ccccc2)N(C)C(=O)[C@H](C)N(C)C(=O)[C@H](CC(C)C)NC(=O)[C@H](Cc2ccccc2)N(C)C(=O)[C@H](CCCNC(=N)N)NC(=O)[C@H](Cc2ccncc2)NC(=O)[C@H](Cc2ccc(O)cc2)NC(=O)CN(C)C1=O [Myostatin_99_Variant_17] ({CH2CO}-[Gly(N(CH2)3COOH)]AWY[NMeF]I[Sar]Y[4Pal]R[NMeF]L[NMeA][NMeF][dC]-NH2; thioether N-15) | 37 | 72 | 0 | 14 | –
CCCCCCC[C@@H]1NC(=O)[C@H](Cc2ccccc2)N(C)C(=O)[C@H](CCCNC(=N)N)NC(=O)[C@H](Cc2ccc(C(=O)O)cc2)NC(=O)[C@H](Cc2cccc(OCC(=O)O)c2)NC(=O)CN(C)C(=O)[C@H]([C@@H](C)CC)NC(=O)[C@H](Cc2ccccc2)N(C)C(=O)[C@H](Cc2ccc(O)cc2)NC(=O)[C@H](Cc2c[nH]c3ccccc23)NC(=O)[C@H](C)NC(=O)[C@H](C)NC(=O)CSC[C@H](C(=O)N2CCN(CC(=O)O)CC2)NC(=O)[C@H](Cc2ccccc2)N(C)C(=O)[C@H](CCC(=O)O)N(C)C1=O [Myostatin_99_v311] ({CH2CO}-AAWY[NMeF]I[Sar][Phe(3-OCH2COOH)][Phe(4-COOH)]R[NMeF][X1][NMeE][NMeF][dC]-{Piperazinyl(4-CH2COOH)}; thioether N-15) | – | – | – | – | inhibition at 0.1 µM (Myostatin; Table 7-3/7-4, myostatin 10 ng/mL, peptide at the higher of the 2 concentrations, HepG2, read-out: inhibition rate (myostatin inhibition assay)): 100%; inhibition at 0.03 µM (Myostatin; Table 7-3/7-4, myostatin 10 ng/mL, peptide at the lower of the 2 concentrations, HepG2, read-out: inhibition rate (myostatin inhibition assay)): 99%; inhibition (GDF-11; HepG2, first GDF-11 column of Table 7-3/7-4, GDF-11 10 ng/mL, peptide at the lower of the 2 concentrations, read-out: inhibition rate (GDF-11 inhibition assay)): 0%; inhibition (GDF-11; HepG2, second GDF-11 column of Table 7-3/7-4, GDF-11 10 ng/mL, peptide at the higher of the 2 concentrations, read-out: inhibition rate (GDF-11 inhibition assay)): 5%
CC[C@H](C)[C@@H]1NC(=O)[C@H](Cc2ccccc2)N(C)C(=O)[C@H](Cc2ccc(O)cc2)NC(=O)[C@H](Cc2c[nH]c3ncccc23)NC(=O)[C@H](C)NC(=O)CN(CCCC(=O)O)C(=O)CSC[C@H](C(=O)N[C@H](CO)C(=O)N[C@H](CO)C(=O)N[C@H](CO)C(=O)N[C@H](CCCCN)C(=O)O)NC(=O)[C@H](Cc2ccccc2)N(C)C(=O)[C@H](C)N(C)C(=O)[C@H](CC(C)C)NC(=O)[C@H](Cc2ccccc2)N(C)C(=O)[C@H](CCCNC(=N)N)NC(=O)[C@H](Cc2ccc(C(=O)O)cc2)NC(=O)[C@H](Cc2ccncc2)NC(=O)CN(C)C1=O [Myostatin_99_v38] ({CH2CO}-[Gly(N(CH2)3COOH)]A[Trp(7-aza)]Y[NMeF]I[Sar][4Pal][Phe(4-COOH)]R[NMeF]L[NMeA][NMeF][dC][dS][dS][dS][dK]-OH; thioether N-15) | 40 | 80 | 0 | 11 | –
CC[C@H](C)[C@@H]1NC(=O)[C@H](Cc2ccccc2)N(C)C(=O)[C@H](Cc2ccc(O)cc2)NC(=O)[C@H](Cc2c[nH]c3ncccc23)NC(=O)[C@H](C)NC(=O)CN(CCCC(=O)O)C(=O)CSC[C@H](C(=O)N[C@H](CO)C(=O)N[C@H](CO)C(=O)N[C@H](CO)C(=O)N[C@H](CCCCN)C(=O)O)NC(=O)[C@H](Cc2ccccc2)N(C)C(=O)[C@H](C)N(C)C(=O)[C@H](CC(C)C)NC(=O)[C@H](Cc2ccccc2)N(C)C(=O)[C@H](CCCNC(=N)N)NC(=O)[C@H](Cc2ccc(C(=O)O)cc2)NC(=O)[C@H](Cc2ccccc2)NC(=O)CN(C)C1=O [Myostatin_99_v37] ({CH2CO}-[Gly(N(CH2)3COOH)]A[Trp(7-aza)]Y[NMeF]I[Sar]F[Phe(4-COOH)]R[NMeF]L[NMeA][NMeF][dC][dS][dS][dS][dK]-OH; thioether N-15) | 69 | 88 | 0 | 0 | –
CCCCCCC[C@@H]1NC(=O)[C@H](Cc2ccccc2)N(C)C(=O)[C@H](CCCNC(=N)N)NC(=O)[C@H](Cc2ccc(C(=O)O)cc2)NC(=O)[C@H](Cc2ccc(-c3ccccc3Cl)cc2)NC(=O)[C@H](C)N(C)C(=O)[C@H]([C@@H](C)CC)NC(=O)[C@H](Cc2ccccc2)N(C)C(=O)[C@H](Cc2ccc(O)cc2)NC(=O)[C@H](Cc2ccc(-c3cnn(CC(=O)N(C)C)c3)cc2)NC(=O)[C@H](C)NC(=O)CN(CCCC(=O)O)C(=O)CSC[C@H](C(=O)O)NC(=O)[C@H](Cc2ccccc2)N(C)C(=O)[C@H](CCC(=O)O)N(C)C1=O [Myostatin_99_v321] ({CH2CO}-[Gly(N(CH2)3COOH)]A[X4]Y[NMeF]I[NMeA][X11][Phe(4-COOH)]R[NMeF][X1][NMeE][NMeF][dC]-OH; thioether N-15) | – | – | – | – | inhibition at 0.03 µM (Myostatin; [3]): 58%; inhibition at 0.1 µM (Myostatin; [3]): 91%; inhibition (GDF-11; HepG2, read-out: inhibition rate (GDF-11 inhibition assay), Table 7-3/7-4, GDF-11 10 ng/mL, peptide at the higher of the 2 concentrations): 0%; inhibition (GDF-11; HepG2, read-out: inhibition rate (GDF-11 inhibition assay), Table 7-3/7-4, GDF-11 10 ng/mL, peptide at the lower of the 2 concentrations): 0%
